Data as given in a melting point compilation (Tetko et al.; mined from patent text by program, amines drawn as free bases though some values may be those of a salt).

Row | melting point | SMILES
1 | 108 to 110 °C | O=S(=O)(c1ccc(Cl)cc1)C(CCSCCO)c1cc(F)ccc1F (centres undefined)
2 | 185 to 187 °C | CCCC(=O)c1cnc2c(C(N)=O)cccc2c1Nc1ccccc1C
3 | 180 to 181 °C | COC1(c2cc(F)cc(S(=O)(=O)c3ccc(/C(C)=N/O)cc3)c2)CCOCC1
4 | 47 to 49 °C | COc1cc([N+](=O)[O-])c2nccc(C)c2c1OCCCCCc1ccco1
5 | 173 to 175 °C | CCOc1c(O)nc(-c2ccc(Cl)c(OC)c2F)nc1C(=O)OC
6 | 224 to 225 °C | CC(=O)NOC(=O)Cc1cnc2ccccc2c1O
7 | 178 to 179 °C | CSc1nnc2c(=O)c3ccc(C)cc3ccn12
8 | 174 to 179 °C | CC(C)(C)OC(=O)N1CCC(c2ccc3nc(-c4ccc(C(F)(F)F)cc4)oc3c2)CC1
9 | 204 °C | O=Cc1ccc(O)c2ccsc12
10 | 93 to 94 °C | O=C1CCC(=O)C1C(=O)CCc1ccc2c(c1)OCO2
11 | 133 to 134 °C | COC(=O)c1cc(OCc2ccc3ccccc3n2)no1
12 | 176 °C | Cc1ccc(-c2c(Cl)ncn2-c2ccc(S(C)(=O)=O)cc2)cc1F
13 | 136 to 138 °C | CN(C)C(=O)C1=C(C(=O)Nc2cc(OC3CCCC3)c(Cl)cc2F)CCCC1
14 | 94 to 96 °C | COC(=O)c1c(C)nc(C)c(C(=O)OC)c1-c1ccccc1F
15 | 201 to 210 °C | CC(=O)c1ccc(C(=O)N2Cc3ccnn3Cc3ccccc32)cc1
16 | 136 to 138 °C | O=C1Nc2ccc(F)cc2OC1CCO (centres undefined)
17 | 178 to 179 °C | O=C(N[C@@H](CN1CCC(=C2c3ccccc3C=Cc3ccccc32)CC1)C(=O)O)OCc1ccccc1
18 | 182 to 184 °C | CCC1(c2cccs2)OCC(=O)Nc2ccc(-c3sc(C#N)cc3C)cc21 (centres undefined)

The remaining lines, values behind:

Row | SMILES | melting point
19 | CC1(C)OC(c2ccc(S(C)(=O)=O)cc2)=C(c2cccc3ccccc23)C1=O | 194 to 195 °C
20 | COc1cc(OCCOc2ccc3ccccc3c2)cc(OC)c1C(=O)C(=O)O | 154 °C
21 | c1ccc(COCCNc2ccc(Nc3ncnc4cc(-c5ccccc5)sc34)cc2)cc1 | 201 to 203 °C
22 | CCCC(C)(C)c1cc(N2CCC(C)C2=O)no1 (centres undefined) | 30 to 31 °C
23 | Cc1oc(-c2ccccc2)nc1COc1ccc(/C=C/CO)cc1C(F)(F)F | 152 to 153 °C
24 | CCOC(Cc1ccc(OCc2nc(C3CC3)oc2C)c2ccsc12)C(=O)O (centres undefined) | 153 to 154 °C
25 | CC(C)n1nc(-c2sc(C(=O)NCCc3ccccn3)nc2-c2ccc(F)cc2)ccc1=O | 144 to 145 °C
26 | CNc1ccsc1C(=O)OC | 54 to 57 °C
27 | Fc1cc(F)c(-c2c(Cl)nc3ncnn3c2Cl)c(F)c1 | 125 to 126 °C
28 | CCOC(=O)c1c(N2CCN(C(=O)c3cccs3)CC2)c2cccnc2n(C)c1=O | 164 °C
29 | CCCCOC(=O)c1c(C)nc2cc(OC)c(OC)cc2c1-c1ccc(OC)c(OC)c1 | 119 to 120 °C
30 | CCCCC(=O)c1c(C)nc2cc(OC)c(OC)cc2c1-c1ccc(OC)c(OC)c1 | 119 to 120 °C
31 | CCOC(=O)c1ccc(NCc2cc3c(cc2O)CCCO3)cc1 | 150 °C
32 | COC(=O)C1=C(C)NC(C)=C(C(=O)c2ccco2)C1c1ccccc1[N+](=O)[O-] (centres undefined) | 90 to 92 °C
33 | CCCCC(C#N)c1cccc(C(=O)c2cc3cc(C(=O)OC)sc3s2)c1 (centres undefined) | 131 °C
34 | CCOC(=O)Cc1sc(Sc2cc(C(=O)OC)nc3ccccc23)nc1C | 94 to 95 °C
35 | ClCc1coc(-c2ccc3oc(-c4ccccc4)nc3c2)n1 | 194 to 195 °C
36 | O=C(c1ccc(Cl)cc1)[C@H]1C[C@H]1C(=O)O (relative stereo) | 150 to 153 °C
37 | C(#CCN(c1ccccc1)c1ccccc1)CN(c1ccccc1)c1ccccc1 | 84 to 86 °C
38 | OCCc1ccc(Nc2ncc3c(n2)-c2ccccc2C(c2cccc(Br)c2)C3)cc1 (centres undefined) | 88 to 90 °C
39 | Cc1cccc2c1nc(COc1ccc(Cl)cc1)n2CCC(C)C(=O)NNCc1ccccc1 (racemic) | 145 to 146 °C
